Source: PubChem BioAssay (NCI)
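Test compounds were applied to cells in 96-well plates for 48 hours at 5 doses. TGI denotes the concentration required for complete inhibition of growth.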

What was measured:
Experiment in all cases: inhibition of tumour cell growth, NCI panel, 48 h
[1] = tested on: A549 NSCLC
[2] = tested on: UACC-62 melanoma
[3] = tested on: PC-3 prostate
[4] = tested on: MOLT-4 leukemia
[5] = tested on: UO-31 renal
[6] = tested on: MDA-N
[7] = tested on: SN12C renal
[8] = tested on: SF-295 CNS
[9] = tested on: K-562 leukemia
[10] = tested on: OVCAR-3 ovarian
[11] = tested on: NCI-H522 lung
[12] = tested on: CAKI-1 renal
[13] = tested on: BT-549 breast
[14] = tested on: SR leukemia
[15] = tested on: U251 CNS
[16] = tested on: T-47D breast
[17] = tested on: 786-0 renal
[18] = tested on: SNB-19 CNS
[19] = tested on: HCC-2998 colon
[20] = tested on: MCF7 breast
[21] = tested on: SK-MEL-28 melanoma
[22] = tested on: HS 578T breast
[23] = tested on: OVCAR-8 ovarian
[24] = tested on: HT29 colon
[25] = tested on: OVCAR-5 ovarian
[26] = tested on: SNB-75 CNS
[27] = tested on: HOP-62 NSCLC
[28] = tested on: HCT-116 colon
[29] = tested on: MDA-MB-435
[30] = tested on: NCI-H460 lung
[31] = tested on: TK-10 renal
[32] = tested on: HCT-15 colon
[33] = tested on: HL-60(TB) leukemia
[34] = tested on: IGROV1 ovarian
[35] = tested on: UACC-257 melanoma
[36] = tested on: EKVX NSCLC
[37] = tested on: SW-620 colon
[38] = tested on: A498 renal
[39] = tested on: COLO 205 colon
[40] = tested on: KM12 colon
[41] = tested on: ACHN renal
[42] = tested on: OVCAR-4 ovarian
[43] = tested on: SK-MEL-5 melanoma
[44] = tested on: SF-539 CNS
[45] = tested on: HOP-92 NSCLC
[46] = tested on: MDA-MB-231 breast
[47] = tested on: LOX IMVI melanoma
[48] = tested on: NCI-H23 lung
[49] = tested on: RPMI-8226 leukemia
[50] = tested on: SK-MEL-2 melanoma
[51] = tested on: M14 melanoma
[52] = tested on: NCI/ADR-RES ovarian
[53] = tested on: NCI-H226 lung
[54] = tested on: CCRF-CEM leukemia
[55] = tested on: SF-268 CNS
[56] = tested on: SK-OV-3 ovarian
[57] = tested on: DU-145 prostate
[58] = tested on: MALME-3M melanoma
[59] = tested on: RXF 393 renal

Compound: CC1(O)CCC(C(C)(C)O)CC1 (centres undefined)
- TGI [1]: > 100 µM
- TGI [2]: > 100 µM
- TGI [3]: > 100 µM
- TGI [4]: > 100 µM
- TGI [5]: > 100 µM
- TGI [6]: > 100 µM
- TGI [7]: > 100 µM
- TGI [8]: > 100 µM
- TGI [9]: > 100 µM
- TGI [10]: > 100 µM
- TGI [11]: > 100 µM
- TGI [12]: > 100 µM
- TGI [13]: > 100 µM
- TGI [14]: > 100 µM
- TGI [15]: > 100 µM
- TGI [16]: > 100 µM
- TGI [17]: > 100 µM
- TGI [18]: > 100 µM
- TGI [19]: > 100 µM
- TGI [20]: > 100 µM
- TGI [21]: > 100 µM
- TGI [22]: > 100 µM
- TGI [23]: > 100 µM
- TGI [24]: > 100 µM
- TGI [25]: > 100 µM
- TGI [26]: > 100 µM
- TGI [27]: > 100 µM
- TGI [28]: > 100 µM
- TGI [29]: > 100 µM
- TGI [30]: > 100 µM
- TGI [31]: > 100 µM
- TGI [32]: > 100 µM
- TGI [33]: > 100 µM
- TGI [34]: > 100 µM
- TGI [35]: > 100 µM
- TGI [36]: > 100 µM
- TGI [37]: > 100 µM
- TGI [38]: > 100 µM
- TGI [39]: > 100 µM
- TGI [40]: > 100 µM
- TGI [41]: > 100 µM
- TGI [42]: > 100 µM
- TGI [43]: > 100 µM
- TGI [44]: > 100 µM
- TGI [45]: > 100 µM
- TGI [46]: > 100 µM
- TGI [47]: > 100 µM
- TGI [48]: > 100 µM
- TGI [49]: > 100 µM
- TGI [50]: > 100 µM
- TGI [51]: > 100 µM
- TGI [52]: > 100 µM
- TGI [53]: > 100 µM
- TGI [54]: > 100 µM
- TGI [55]: > 100 µM
- TGI [56]: > 100 µM
- TGI [57]: > 100 µM

Compound: CC1=NN(C(=O)CC(=O)N(C(=O)c2ccccc2)c2ccc(Cl)cc2)C(=O)C1N=Nc1ccc([N+](=O)[O-])cc1 (centres undefined)
- TGI [1]: > 10 µM
- TGI [2]: > 10 µM
- TGI [3]: > 10 µM
- TGI [4]: > 10 µM
- TGI [5]: > 10 µM
- TGI [6]: > 10 µM
- TGI [7]: > 10 µM
- TGI [8]: > 10 µM
- TGI [9]: > 10 µM
- TGI [10]: > 10 µM
- TGI [11]: > 10 µM
- TGI [12]: > 10 µM
- TGI [58]: > 10 µM
- TGI [13]: > 10 µM
- TGI [15]: > 10 µM
- TGI [16]: > 10 µM
- TGI [17]: > 10 µM
- TGI [18]: > 10 µM
- TGI [19]: > 10 µM
- TGI [20]: > 10 µM
- TGI [21]: > 10 µM
- TGI [22]: > 10 µM
- TGI [23]: > 10 µM
- TGI [24]: > 10 µM
- TGI [25]: > 10 µM
- TGI [26]: > 10 µM
- TGI [27]: > 10 µM
- TGI [59]: > 10 µM
- TGI [28]: > 10 µM
- TGI [29]: > 10 µM
- TGI [30]: > 10 µM
- TGI [31]: > 10 µM
- TGI [32]: > 10 µM
- TGI [33]: > 10 µM
- TGI [34]: > 10 µM
- TGI [35]: > 10 µM
- TGI [36]: > 10 µM
- TGI [37]: > 10 µM
- TGI [38]: > 10 µM
- TGI [39]: > 10 µM
- TGI [40]: > 10 µM
- TGI [41]: > 10 µM
- TGI [42]: > 10 µM
- TGI [43]: > 10 µM
- TGI [44]: > 10 µM
- TGI [45]: > 10 µM
- TGI [46]: > 10 µM
- TGI [47]: > 10 µM
- TGI [48]: > 10 µM
- TGI [49]: > 10 µM
- TGI [50]: > 10 µM
- TGI [52]: > 10 µM
- TGI [53]: > 10 µM
- TGI [54]: > 10 µM
- TGI [55]: > 10 µM
- TGI [56]: > 10 µM
- TGI [57]: > 10 µM

Compound: Cc1ccc(Cc2nc(=S)[nH][nH]2)cc1
- TGI [1]: > 100 µM
- TGI [2]: > 100 µM
- TGI [3]: > 100 µM
- TGI [4]: > 100 µM
- TGI [5]: > 100 µM
- TGI [6]: > 100 µM
- TGI [7]: > 100 µM
- TGI [8]: > 100 µM
- TGI [9]: > 100 µM
- TGI [10]: > 100 µM
- TGI [12]: > 100 µM
- TGI [58]: > 100 µM
- TGI [13]: > 100 µM
- TGI [14]: > 100 µM
- TGI [15]: > 100 µM
- TGI [16]: > 100 µM
- TGI [17]: > 100 µM
- TGI [18]: > 100 µM
- TGI [19]: > 100 µM
- TGI [20]: > 100 µM
- TGI [21]: > 100 µM
- TGI [22]: > 100 µM
- TGI [23]: > 100 µM
- TGI [24]: > 100 µM
- TGI [25]: > 100 µM
- TGI [26]: > 100 µM
- TGI [27]: > 100 µM
- TGI [28]: > 100 µM
- TGI [29]: > 100 µM
- TGI [30]: > 100 µM
- TGI [31]: > 100 µM
- TGI [32]: > 100 µM
- TGI [33]: 97.9 µM
- TGI [34]: > 100 µM
- TGI [35]: > 100 µM
- TGI [36]: > 100 µM
- TGI [37]: > 100 µM
- TGI [38]: > 100 µM
- TGI [39]: > 100 µM
- TGI [40]: > 100 µM
- TGI [41]: > 100 µM
- TGI [42]: 96.5 µM
- TGI [43]: > 100 µM
- TGI [44]: > 100 µM
- TGI [45]: > 100 µM
- TGI [46]: > 100 µM
- TGI [47]: > 100 µM
- TGI [48]: > 100 µM
- TGI [50]: > 100 µM
- TGI [51]: > 100 µM
- TGI [52]: > 100 µM
- TGI [53]: > 100 µM
- TGI [54]: > 100 µM
- TGI [56]: > 100 µM
- TGI [57]: > 100 µM
